Source: patent US20240239813A1, “KRAS INHIBITORS AND PHARMACEUTICAL USES THEREOF” (RISEN (SUZHOU) PHARMA TECH CO., LTD., priority 2022, published 2024)

Assays:
[1] = Microsomal stability assay, mouse liver microsomes; format: in vitro ADME; conditions: CD-1, pooled mouse liver microsomes, 0.5 mg/mL protein
Experimental: (§1) Test results from this assay were used to determine the metabolic liabilities of test compounds and allow focus on the improvement of drug candidates through structure-activity relationships. Pooled mouse/rat/human liver microsomes were used for this assay
(§2) In vitro mouse (CD-1, BioIVT)/rat (SD, RILD)/human (Corning) liver microsomal suspensions at 0.5 mg/mL protein and 1.3 mM NADPH, 3.3 mM MgCl2 were pre incubated at 37° C. for 3 mins prior to addition of 0.1 mM test compound solution to give a final incubation concentration of 1 μM. Samples were incubated for 0, 15, 30, 60 minutes at 37° C. on a shaker (the positive control substance was cultured for 0 or 60 minutes). At the end of each incubation time both incubated and control samples were quenched with ice-cold stop solution containing internal standard. All samples were mixed by a plate shaker at 800 rpm for 5 minutes, then centrifuged at 4100 rpm for 15 minutes at 4° C. to precipitate protein. Supernatant was transferred to another 96-well plate, dilution solution was added to each supernatant well, and then each bioanalysis plate was sealed. The samples were mixed by plate shaker at 800 rpm for 5 minutes and then centrifuged at 4° C., 4100 rpm for 5 minutes. All samples were stored at 4° C. before LC-MS/MS analysis.
(§3) The peak area ratio was converted to the remaining percentages (% Remaining) using the following formula: […]
(§4) where % Remaining is the compound ratio (compound peak area/internal standard peak area) as a percentage of the 0 minute time point.
(§5) The ln remaining percent of test articles were plotted against time and the gradient of the line determined; the gradient was converted to elimination rate constant by using the following formula:
(§6) Elimination rate constant(ke)=−gradient
(§7) Half time (T1/2) was determined using following formula: […]
(§8) Hepatic intrinsic clearance (CLint(liver)) was determined by using the following formulas: […]
(§9) The Intrinsic clearance of selected compounds is depicted in Table 6.

[2] = system: AsPC-1; assay: Cell proliferation assay (CellTiterGlo), AsPC-1; format: cell-based; conditions: Homo sapiens, ASPC1, AsPC-1, 72 hours
Experimental: (§10) A cell proliferation assay was used to evaluate inhibition by exemplary compounds. Proliferation assays used human tissue derived cancer cell lines, for example, AsPC-1 (Cobioer, CBP60546), GP2D (Cobioer, CBP60683), NCI-H358 (Cobioer, CBP60544), NCI-H727 (Cobioer, CBP60182), MKN-1 (Cobioer, CBP60486), HCT116 (ATCC, CCL-247), and HT-29 (Cobioer, CBP60011). Signal reflecting cell proliferation was detected with the CellTiterGlo kit (Promega, G7573).
(§11) Cells were cultured in the growth phase and 3×10^3 cells per well were plated in a 96-well plate (Greiner, 655090). Cells were incubated 24 hours at 37° C. and 5% carbon dioxide in a humidity chamber. Serially diluted exemplary compounds were added to the plate which was then incubated for another 72 hours. Plates were brought to room temperature and an equal volume of CellTiterGlo reagent was added. After 10 minutes incubation at room temperature to stabilize the signal, the luminescent signal was measured on the VICTOR Nivo multimode plate reader according to the manufacturer's instructions. The signal was converted to percent inhibition using the following formula: […]
(§12) (where the “Maximum Signal” are wells containing DMSO without inhibitor; the “Minimum Signal” are signal of wells recorded at Day 0 prior to commencement of the experiment; the “Test compound signal” are wells containing inhibitor at established concentrations).
(§13) IC50 was determined by fitting percent inhibition at each inhibitor concentration to the four-parameter nonlinear logistic equation using GraphPad Prism. IC50 (nM) values of selected compounds are depicted in Table 4. “-”: means without measuring; and “ND” means not detected.

[3] = system: NCI-H358; assay: Cell proliferation assay (CellTiterGlo), NCI-H358; format: cell-based; conditions: Homo sapiens, NCI-H358, 72 hours
Experimental: as §10, §11, §12, §13

[4] = Microsomal stability assay, human liver microsomes; format: in vitro ADME; conditions: pooled human liver microsomes, 0.5 mg/mL protein
Experimental: as §1, §2, §3, §4, §5, §6, §7, §8, §9

[5] = system: GP2D; assay: Cell proliferation assay (CellTiterGlo), GP2D; format: cell-based; conditions: Homo sapiens, 72 hours
Experimental: as §10, §11, §12, §13

[6] = Microsomal stability assay, rat liver microsomes; format: in vitro ADME; conditions: SD, pooled rat liver microsomes, 0.5 mg/mL protein
Experimental: as §1, §2, §3, §4, §5, §6, §7, §8, §9

[7] = system: NCI-H727; assay: Cell proliferation assay (CellTiterGlo), NCI-H727; format: cell-based; conditions: Homo sapiens, NCI-H727, 72 hours
Experimental: as §10, §11, §12, §13

[8] = target: His-tagged Human KRAS^G12D (Homo sapiens (Human), UniProt P01116, G12D); assay: HTRF KRAS G12D GTP binding assay; conditions: displacement of GTP-Red tracer
His-tagged Human KRAS^G12D, sequence (P01116-2 other isoform, or with tags, fused parts or gaps G12D): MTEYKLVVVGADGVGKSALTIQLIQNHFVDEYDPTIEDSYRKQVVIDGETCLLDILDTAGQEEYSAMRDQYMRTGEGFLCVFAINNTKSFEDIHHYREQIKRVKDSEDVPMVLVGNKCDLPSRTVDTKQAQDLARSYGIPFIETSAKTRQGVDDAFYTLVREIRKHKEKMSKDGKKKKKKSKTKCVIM

[9] = system: phosphorylation of p-ERK1/2 in MKN-1; assay: Cellular phospho-ERK inhibition, MKN-1; format: cell-based; conditions: Homo sapiens; MKN-1, 4 hours
Experimental: (§14) The ability of exemplary test compounds to inhibit the phosphorylation of p-ERK1/2, which is the downstream effector of KRas in multiple human cancer cell lines such as AsPC-1 (Cobioer, CBP60546), GP2D (Cobioer, CBP60683), NCI-H358 (Cobioer, CBP60544), NCI-H727 (Cobioer, CBP60182), MKN-1 (Cobioer, CBP60486), HCT116 (ATCC, CCL-247), and HT-29 (Cobioer, CBP60011), was measured. Signal reflecting cell proliferation was detected with the Advanced phospho-ERK (Thr202/Tyr204) cellular kit (Cisbio, 64AERPEG).
(§15) Cells were cultured in the growth phase and 3×10^4 cells per well were plated in a 96-well plate (Corning, 3599). Cells were incubated 24 hours at 37° C. and 5% carbon dioxide in a humidity chamber. Serially diluted exemplary compounds were added to the cell plate which was then incubated for another 4 hours in a humid tray at 37° C. and 5% carbon dioxide. 1× Lysis buffer (Cisbio, 64AERPEG) was prepared at ambient temperature. Cell culture medium was removed, then lysis buffer (50 μL/well) was added to the cell plate and the plate was incubated at room temperature for 30 minutes on a shaker. […] The luminescent signal was measured on the VICTOR Nivo multimode plate reader according to the manufacturer's instructions. […]
(§16) IC50 was determined by fitting percent inhibition at each inhibitor concentration to the four-parameter nonlinear logistic equation using GraphPad Prism. […]

[10] = system: phosphorylation of p-ERK1/2 in AsPC-1; assay: Cellular phospho-ERK inhibition, AsPC-1; format: cell-based; conditions: Homo sapiens, ASPC1; AsPC-1, 4 hours
Experimental: as §14, §15, §16

[11] = system: phosphorylation of p-ERK1/2 in NCI-H358; assay: Cellular phospho-ERK inhibition, NCI-H358; format: cell-based; conditions: Homo sapiens; NCI-H358, 4 hours
Experimental: as §14, §15, §16

[12] = system: phosphorylation of p-ERK1/2 in GP2D; assay: Cellular phospho-ERK inhibition, GP2D; format: cell-based; conditions: Homo sapiens, 4 hours
Experimental: as §14, §15, §16

[13] = system: phosphorylation of p-ERK1/2 in HT-29; assay: Cellular phospho-ERK inhibition, HT-29; format: cell-based; conditions: Homo sapiens; HT-29, 4 hours
Experimental: as §14, §15, §16

[14] = system: phosphorylation of p-ERK1/2 in HCT-116; assay: Cellular phospho-ERK inhibition, HCT-116; format: cell-based; conditions: Homo sapiens; HCT-116, 4 hours
Experimental: as §14, §15, §16

[15] = system: phosphorylation of p-ERK1/2 in NCI-H727; assay: Cellular phospho-ERK inhibition, NCI-H727; format: cell-based; conditions: Homo sapiens; NCI-H727, 4 hours
Experimental: as §14, §15, §16

[16] = system: HT-29; assay: Cell proliferation assay (CellTiterGlo), HT-29; format: cell-based; conditions: Homo sapiens, HT-29, 72 hours
Experimental: as §10
(§17) Cells were cultured in the growth phase and 3×10^3 cells per well were plated in a 96-well plate (Greiner, 655090). Cells were incubated 24 hours at 37° C. and 5% carbon dioxide in a humidity chamber. […] After 10 minutes incubation at room temperature to stabilize the signal, the luminescent signal was measured on the VICTOR Nivo multimode plate reader according to the manufacturer's instructions. […]
as §12
(§18) IC50 was determined by fitting percent inhibition at each inhibitor concentration to the four-parameter nonlinear logistic equation using GraphPad Prism. […] “-”: means without measuring; and “ND” means not detected.

[17] = system: HCT-116; assay: Cell proliferation assay (CellTiterGlo), HCT-116; format: cell-based; conditions: Homo sapiens, HCT-116, 72 hours
Experimental: as §10, §17, §12, §18

[18] = system: MKN-1; assay: Cell proliferation assay (CellTiterGlo), MKN-1; format: cell-based; conditions: Homo sapiens, MKN-1, 72 hours
Experimental: as §10, §11, §12, §13

Structure (SMILES) | CLint scaled at 1 μM [1] | IC50 [2] | IC50 [3] | CLint scaled at 1 μM [4] | IC50 [5] | CLint scaled at 1 μM [6] | IC50 [7] | IC50 [8] | IC50 [9] | IC50 [10] | IC50 [11] | IC50 [12] | IC50 [13] | IC50 [14] | IC50 [15] | IC50 [16] | IC50 [17] | IC50 [18]
CCc1c(F)ccc2cc(O)cc(-c3ncc4c(N5CCC[C@]6(CCO6)C5)nc(OCC5(CN6CCC(F)CC6)CC5)nc4c3F)c12 [Compound 29a] | 1040 mL/min/kg | 25 nM | 25.1 nM | 181 mL/min/kg | 2.3 nM | 410 mL/min/kg | 14.7 nM | 4.3 nM | – | – | – | – | – | – | – | – | – | –
CCc1c(F)ccc2cc(O)cc(-c3ncc4c(N5CCCC6(CCO6)C5)nc(OC[C@@]56CCCN5C[C@H](F)C6)nc4c3F)c12 (stereo partly drawn) [Compound 25] | – | – | – | – | – | – | – | – | 8.25 nM | 17.4 nM | 83.7 nM | 3.36 nM | > 1000 nM | 173 nM | 110 nM | – | – | –
CCc1c(F)ccc2cc(O)cc(-c3ncc4c(N5CCC[C@]6(CCO6)C5)nc(OCC5(CN6CCCC6)CC5)nc4c3F)c12 [Compound 10a] | 671 mL/min/kg | 16 nM | 18.7 nM | 42.5 mL/min/kg | 1.8 nM | 46.4 mL/min/kg | 17 nM | 6.9 nM | – | – | – | – | – | – | – | – | – | –
CCc1c(F)ccc2cc(O)cc(-c3ncc4c(N5CCCC(C)(O)C5)nc(OC[C@@]56CCCN5C[C@H](F)C6)nc4c3F)c12 (stereo partly drawn) [Compound A1, reference compound] | 1180 mL/min/kg | 161 nM | 152 nM | 46 mL/min/kg | 15.7 nM | 111 mL/min/kg | 130 nM | – | – | – | – | – | – | – | – | 7730 nM | 1430 nM | 144 nM
